Test results as given in patent US20240300934A1, “COMPOUNDS FOR MODULATING MYCOBACTERIUM TUBERCULOSIS RESPONSE” (priority 2021, published 2024).
Values after ≈ are worked out from the molar mass of the structure shown. Where two headings read alike, the source gives them in different places.

What was measured:
J774 cells = experiment: Intracellular drug accumulation assay in J774 cells; details: 24 h exposure; uninfected J774 cells
[1] = tested on: Mtb in bone marrow-derived macrophages (BMDMs); experiment: Mtb growth in primary murine bone marrow-derived macrophages (CFU); format: cell-based, Mycobacterium tuberculosis; details: 10 μM; added 2 hrs post-infection; eight-day time-course
Method: C57BL/6J wild type mice (Jackson Laboratories) were used for extraction of bone marrow-derived macrophages. Cells were harvested and expanded in DMEM containing 10% FBS, 15% L-cell conditioned media, 2 mM L-glutamine, 1 mM sodium pyruvate, and penicillin/streptomycin as needed in a 37° C. incubator in a 5% CO2 atmosphere. […] Macrophages were lysed with water containing 0.01% sodium dodecyl sulfate and a dilution series of the samples plated on 7H10 agar for CFU determination.

[2] = Mouse plasma protein binding; format: in vitro ADME
[3] = Kinetic aqueous solubility in pH 7.4 PBS; format: physicochemical; details: read-out: Kinetic Aqueous Solubility S
Method: (§1) Assays examining mouse and human liver microsomal stability, kinetic aqueous solubility, mouse and human plasma protein binding and stability, and human cytochrome P450 inhibition characteristics of the compounds were run by BioDuro, Incorporated, using standard protocols as previously described (Wang et al, 2020). hERG inhibition assays were also performed by BioDuro, Incorporated.

Mtb-infected J774 cells = details: 10 μM for 24 h; 5 days post-infection
Mtb in J774 cells = experiment: Mtb growth in J774 macrophage-like cells (mKO fluorescence); format: cell-based, Mycobacterium tuberculosis
Procedure, shortened: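 J774 cells infected with log-phase mKO-expressing Mtb (OD600=0.2 suspension), compounds dosed from 20 μM final in two-fold dilutions to 0.039 μM, or single 10 μM in 96-well format; 37° C., 5% CO2, 6 days. mKO fluorescence read, growth expressed as percent of DMSO control.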

[4] = Mouse liver microsomal stability; format: in vitro ADME; details: mouse liver microsomes
Method: as §1

Vero cells = experiment: Vero cell toxicity assay; format: cell-based, African green monkey; details: 72 h
Method: Vero cells (African green monkey kidney epithelial cells; ATCC CCL-81) were maintained in DMEM+10% FBS. For the cell toxicity assay, Vero cells were plated at 1×10^5 cells/well in a 96-well plate and incubated for 2-3 h to allow cells to settle. The test compound was dissolved in DMSO at a final concentration of 12 mg/ml. The test compound solution was then added to plated cells, resulting in final test concentrations of 50 to 0.78 μg/ml, with each concentration tested at least in duplicate. To evaluate […] cell viability, 20 μl of a 1:20 MTS:PMS reagent (Promega CellTiter 96 AQueous non-radioactive cell proliferation assay kit) was added to each well after 72 h of incubation at 37° C. and the plate then incubated for an additional 3 h. Absorbance at 490 nm was read on a Molecular Devices SpectraMax M5 microplate reader. The CC50 (the minimal amount of compound that inhibited Vero cell growth by 50%) was extrapolated by plotting absorbance at 490 nm versus the […].

human CYP 450 2C19 = human CYP 450 2C19 (Homo sapiens, UniProt P33261); experiment: Human cytochrome P450 inhibition, 2C19; format: in vitro ADME; details: 10 μM
Human plasma stability = format: in vitro ADME; details: after 5 h incubation
Method: as §1

human CYP 450 2C19, sequence (P33261 whole entry): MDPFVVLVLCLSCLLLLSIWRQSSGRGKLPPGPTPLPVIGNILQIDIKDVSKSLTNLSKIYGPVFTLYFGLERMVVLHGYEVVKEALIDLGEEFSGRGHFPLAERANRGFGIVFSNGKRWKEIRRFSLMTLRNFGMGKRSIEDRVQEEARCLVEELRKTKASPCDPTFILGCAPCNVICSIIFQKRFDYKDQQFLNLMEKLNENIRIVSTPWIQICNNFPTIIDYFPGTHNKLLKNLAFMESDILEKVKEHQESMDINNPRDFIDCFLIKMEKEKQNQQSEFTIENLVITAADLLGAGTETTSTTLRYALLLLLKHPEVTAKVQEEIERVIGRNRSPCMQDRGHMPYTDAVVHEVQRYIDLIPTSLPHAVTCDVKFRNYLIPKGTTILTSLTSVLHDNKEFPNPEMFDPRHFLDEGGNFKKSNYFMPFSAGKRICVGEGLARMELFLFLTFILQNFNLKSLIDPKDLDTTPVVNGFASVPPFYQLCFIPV

For `CCSc1ncc(CN2CCN(c3nc4ccccc4o3)CC2)cn1` [Compound C6, 2-(4-((2-(ethylthio)pyrimidin-5-yl)methyl)piperazin-1-yl)benzo[d]oxazole], the “intracellular accumulation in J774 cells” value (J774 cells) was “dose-dependent accumulation”, the “Mtb bacterial load / growth in primary murine BMDM (in words)” value [1] was “significant decrease in bacterial load” and the “protein binding to mouse plasma” value [2] was 97.0%. For the same molecule, the solubility kinetic ([3]; PBS, pH 7.4, aqueous buffer, kinetic from dmso stock, Table 2) was 76.4 µM (≈ 27.2 µg/mL), the solubility kinetic ([3]; pH 7.4 phosphate buffered saline (PBS)) was 76.4 µM (≈ 27.2 µg/mL) and the “accumulation in Mtb-infected J774 cells” value (Mtb-infected J774 cells) was “trend of greater C6 accumulation in the Mtb-infected J774 cells than uninfected J774 cells”. The “% Reduction of Intracellular Infection (J774.1 cells) at 10 μM cmpd” value (Mtb in J774 cells; 10 μM compound, J774.1 cells) was 54.2 ± 2.6%, the “Mtb growth in J774 cells (in words)” value (Mtb in J774 cells; 10 μM, 6 days post-infection) was “Mtb growth inhibition” and the inhibition at 10 µM (Mtb in J774 cells; Mycobacterium tuberculosis, J774CELLS, J774, 144 h, read-out: % inhibition compared to Rif in J774 at 10 μM) was 40.5 ± 0.6%. The inhibition at 20 µM (Mtb in J774 cells; Mycobacterium tuberculosis, J774CELLS, J774, 144 h, read-out: % inhibition compared to Rif in J774 at 20 μM) was 53.6 ± 2.7%, the “Inhibition of Mtb growth in J774 cells phenotype” value (Mtb in J774 cells; compared to C6) was “Y” and the “MLM t1/2” value [4] was 48.5 min. For the same molecule, the “CC50 (minimum compound concentration to inhibit cell growth by 50%)” value (Vero cells) was over 50 µg/mL, the “% inhibition of CYP 2C19” value (human CYP 450 2C19) was 30.3% and the “stability in human plasma, % remaining” value (Human plasma stability) was 94.6%.
